Experimental data taken from patent US8785416B2, “Sulphated disaccharides for the treatment of neurodegenerative and/or neurovascular diseases” (Bioiberica, S.A., priority 2009, dated 2014).

What was measured:
[1] = test system: SH-SY5Y human neuroblastoma cell line; assay: Cell toxicity study, LDH release, SH-SY5Y cells incubated 48 hours; format: cell-based; details: 100 μM, 48 hours incubation
Method: The cell toxicity studies were performed on the SH-SY5Y human neuroblastoma cell line, incubating said cells for 48 hours with the compound under study. The cell viability was assessed by quantifying the release of lactate dehydrogenase (LDH), which is a cytoplasmic enzyme which is released into the extracellular medium when the integrity of the cytoplasmic membrane is lost.

[2] = test system: SH-SY5Y human neuroblastoma cells; assay: Generation of intracellular reactive oxygen species (ROS) after hydrogen peroxide, DCFDA fluorescence; format: cell-based
Excerpt: To determine the production of free radicals, the fluorescent probe 2″-7″-dichlorodihydrofluorescein diacetate (DCFDA) was used, which is sensitive to the presence of free radicals, such that when the latter are intracellularly generated there is an increase of fluorescence.
When the fluorescent probe passes into the cell, intracellular esterases hydrolyze the probe, transforming it into DCFH2. Peroxidases, cytochrome C and Fe^2+ can oxidize the probe to DCF in the presence of hydrogen peroxide, and the accumulation of DCF in the cell can be measured as an increase of fluorescence at 530 nm when it is excited at 485 nm.
SH-SY5Y human neuroblastoma cells were cultured following the procedure described in Example 3.
For the fluorescence assays, the cells were seeded in 96-well plates with opaque walls at a density of 10,000 cells/well. […]
To evaluate the effects of compound Ic on the generation of ROS, the cells were incubated with increasing concentrations of compound Ic (0.01 and 0.1 μM) for 24 hours and then they were preincubated with the fluorescent probe DCFDA for 45 minutes. Subsequently, the baseline fluorescence of each well, both of the wells containing cells and compound Ic and of those containing only the cells, was quantified. […] The baseline fluorescence of each well containing compound Ic was subtracted from it in order to obtain the net fluorescence. […]

[3] = test system: mice (photothrombotic stroke model); assay: Experimental photothrombotic stroke model, cortical infarction volume; format: in vivo, mouse; details: 10 mg/kg i.p.
Excerpt: Neuronal death occurs during brain ischemia or stroke; therefore a medicament with a neuroprotective profile can have a therapeutic potential in patients who have suffered from a cerebral infarction or stroke. To explore if the compounds of formula (I) can offer neuroprotection in vivo, the experimental photothrombotic stroke model was used. In the photothrombosis model a focal cerebral infarction is induced in the area of the cortex illuminated by means of a cold light source in mice previously treated with the Rose Bengal stain; this stain is photosensitive and produces free radicals when it is stimulated with light, causing lesions in the surrounding vascular endothelium, which causes platelet aggregation and the formation of thrombi in the microvessels of the cerebral cortex (Non-invasive induction of focal cerebral ischemia in mice by photothrombosis of cortical microvessels: characterization of inflammatory responses, M. Schroeter et al., J Neurosci Methods. 117(1), 43-49. (2002); Melatonin reduces infarction volume in a photothrombotic stroke model in the wild-type but not cyclooxygenase-1-gene knockout mice, L Y. Zhou et al., J Pineal Res. 41(2), 150-156. (2006)).
Adult male Swiss breed mice from Harlan laboratories (Barcelona), with a weight of about 30 g, were used. Once anaesthetised with isoflurane, the mice were placed in a stereotaxic frame, maintaining their rectal temperature at 37±0.5° C. during the entire procedure. Subsequently, the cranium was exposed by means of a dorsomedial incision in the skin and the periosteum was removed. By means of the use of a micromanipulator, a fibre-optic cable was placed to emit a beam of light of 1.9 mm in diameter and 3000° K, connected to a cold light source (Zeiss KL 1500), in 2.0 mm posterior and 3.0 mm lateral to Bregma on the right side. According to the mouse brain atlas (Franklin and Paxinos, 1986), the sensitive-motor cortex, the putamen caudate and the hippocampus are right below this stereotaxic position. Then, the mice were injected with 1 mg of the Rose Bengal photosensitive probe and the brain was illuminated through the intact cranium for 30 minutes. Finally, the skin was sutured and the animals were left in a cage until their recovery under observation.
The animals were sacrificed by decapitation 72 hours after the ischemia. […]
To quantify the cortical cerebral infarction volume, the sections stained with TTC were scanned on both their rostral and caudal part and by means of the image analysis programme ImageJ 1.41 (National Institutes of Health, Bethesda, Md., USA) the area of the ipsi-, contralateral cortex and the cerebral infarction of each of the sections scanned, both in the caudal and rostral part, was quantified. Subsequently, the cerebral infarction volume was calculated. […]

In the case of “methyl 2-acetamido-2-deoxy-3-O-(β-D-glucopyranosyluronic acid)-4,6-di-O-sulpho-α-D-glucopyranoside, trisodium salt [compound Ic]”, the “cell toxicity (release of LDH)” value [1] is reported as “did not show toxicity”, the “reduction in the formation of free radicals induced by hydrogen peroxide” value ([2]; 0.1 μM, 24 hours incubation before 50 μM hydrogen peroxide) is reported as 40% and the “ROS generated by hydrogen peroxide at 30 and 60 minutes” value ([2]; cells treated 24 hours with compound (0.01 and 0.1 μM) before 50 μM hydrogen peroxide) is reported as “significantly reduced”. The cortical infarction volume ([3]; 24 h and 1 h before ischemia and twice a day after, 72 hours, saline 6.1±2.18%, mean and standard deviation) was 2.8±1.95% and the “protection (reduction of cortical infarction volume)” value ([3]; p<0.001 vs saline) was 53%.
